“Also recorded” adds a separate entry of the source.
What was measured:
Tau = settings: previously reported (19); cited from earlier work
APP-Tau binding = biological target: T1, APP-Tau binding (Homo sapiens, UniProt P10636); assay: ELISA: peptide inhibition of Tau and APP protein binding; settings: peptides or combinations 1 μg/ml, four hours at RT before APP protein; anti Aß detection
T1 construct: purchased Bio-Legend US
Method: An ELISA plate (96 wells) was coated with Tau protein 1 μg/ml in bicarbonate PH=8.2 50 μl/well, then incubated overnight at 4° C. Peptides and their combinations were also incubated overnight at 4° C. in PBS 1 μg/ml. The next day, the plate was washed 3× with PBS and blocked with 3% BSA/PBS for two hours at RT. The plate was washed again 3× with PBS and peptides or their combinations 50 ul/well were added for four hours at RT. The plate was washed again 3× with PBS and APP protein, 1 μg/ml 50 μl/well was added for ON incubation at 4° C. The next day, the plate was washed 3× with PBS, following which anti Aß 1-16 (1 mg/ml) was added (1:500 dilution 50 μl/well) for two hours at RT. The plate was washed again and anti-mouse HRP antibodies (1:10,000 dilution in PBS 1% BSA) added at 50 μl/well. Color reaction was stopped with 50 μl/well of 1M H2S04 and read at 0.D. 450.

hippocampus = assay: Number of elements and % of area in the hippocampus (Table 3); format: in vivo, mice
Method: Mice were sacrificed (trans-cardially punctured, and saline-perfused). The right brain hemisphere of each mouse was stored at −70° C. to quantify Aβ levels. The left hemispheres were fixed (4% paraformaldehyde) and prepared for paraffin blocks which were cut into six micron sagittal sections and used for histological staining and examination. Sagittal brain sections were stained with Congo red dye (Sigma-Aldrich) and visualized by fluorescence microscopy. Quantification of amyloid depositions was done for the whole hippocampal area in a blinded fashion using Imaging Research software from the National Institutes of Health in an unbiased stereological approach.

mice = assay: Y maze behavior test of APP1 peptide flexibly linked to Tau peptide; format: in vivo; settings: treated mice vs control treated mice (PBS), FIG. 6
Source text: The Y-maze test (45) consists of two trials, first “training” and second “retention”, separated by an inter-trial interval (ITI). Each arm of the Y-maze was equipped with a guillotine door that could be operated manually. The three identical arms were randomly designated as follows: the “start” (steam) arm, in which the mouse began to explore the maze (always open); the “Novel” arm, which was closed off during the first trial, but open in the second one; and the “other” arm (always open). The first (training) trial lasted five minutes and allowed the mouse to explore only two arms (“start” and “other”) of the maze. Access to the third (“Novel”) arm was blocked. The second trial (retention) was conducted after a two minute ITL. During this three minute trial, all three arms were accessible. The mouse was returned to the same starting arm and was allowed to explore all three arms. Retention was scored as a preferential index to the “Novel” arm, that was calculated as follows: time spent in the “Novel” arm minus the time spent in the old arm divided by the sum of time spent in both arms (46).
An additional experiment was carried out testing the effects of the APP1 peptide flexibly linked to the TAU peptide on behavior as tested in the Y maze.

T1 sequence (P10636 1-441 isoform P10636-8): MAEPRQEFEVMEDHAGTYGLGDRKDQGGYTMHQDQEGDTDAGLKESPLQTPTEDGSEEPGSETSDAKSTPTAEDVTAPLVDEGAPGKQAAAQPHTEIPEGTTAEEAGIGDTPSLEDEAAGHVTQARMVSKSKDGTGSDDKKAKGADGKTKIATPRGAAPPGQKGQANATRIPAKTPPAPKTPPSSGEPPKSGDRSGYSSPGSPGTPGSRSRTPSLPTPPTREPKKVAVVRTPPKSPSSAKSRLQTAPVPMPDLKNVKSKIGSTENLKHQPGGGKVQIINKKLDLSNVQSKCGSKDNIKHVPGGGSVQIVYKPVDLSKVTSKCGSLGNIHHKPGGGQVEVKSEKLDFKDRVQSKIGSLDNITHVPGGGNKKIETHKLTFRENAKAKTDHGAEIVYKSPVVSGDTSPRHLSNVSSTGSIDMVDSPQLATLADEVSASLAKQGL

inhibition of APP protein binding to Tau coated plate (APP-Tau binding) | Sequence | binding to Tau (Tau) | % of area (hippocampus) [%] | Number of elements (hippocampus) | Y maze preferential index (cognitive ability) (mice)
not inhibited | ATVIVITLVMLKKKQYTS [APP2, reference compound] | bind Tau | – | – | –
– | HFQKAKERLEAKHRERMSQVMREGGGGSGGGGSGGGGSGLGDRKDQGGYTMHQD (example of a peptide which comprises an APP derived peptide linked by a flexible peptide linker to a TAU derived peptide) | – | 1.9 | 112 | improve
not inhibited | GLGDRKDQGGYTMHQD [Tau1, synthetic peptide from N-terminal end of Tau protein (residues 19-34)] | – | – | – | –

Sequence | inhibition of APP protein binding to Tau coated plate (APP-Tau binding) | binding to Tau (Tau) | % of area (hippocampus) [%] | Number of elements (hippocampus) | Y maze preferential index (cognitive ability) (mice)
HFQKAKERLEAKHRERMSQVMRE [APP1, synthetic peptide from APP protein, APP1 (390-412)] | significant but partial inhibition; also recorded: significant, but partial inhibition | – | – | – | –

Source: patent publication US12723064B2, “Treating Alzheimer's disease” (Yeda Research and Development Co. Ltd., priority 2020, dated 2026)
